Assay results as given in patent US20240066057A1, “METHOD FOR TREATING PAIN USING VANADIUM COMPOUNDS” (HUNAN FANGSHENGTAI MEDICAL TECHNOLOGY CO., LTD, priority 2020, published 2024).
“Also recorded” adds a separate entry of the source.

Tests used:
[1] = test system: Kunming mice with CFA-induced inflammation; test: Effective concentration and plateau experiment of vanadium compounds, tail vein injection, mouse pain model; format: in vivo
[2] = test system: Kunming mice with CFA-induced inflammation; test: Von Frey test (50% paw withdrawal threshold) in CFA-induced inflammatory pain mouse model; format: in vivo; details: Example 10; G1 injected through the tail vein 0.49 mg/kg (atomic mass of vanadium); ASA group as control
[3] = test system: Kunming mice with CFA-induced inflammation; test: as above; format: in vivo
Description: 10 μL of complete Freund's adjuvant (CFA) was injected into the left hind foot of mice (♂ Kunming mice, 22 g to 40 g) to induce inflammation. 24 hours after the injection, a Von Frey test was performed to determine a pain threshold. That is, under the guidance of Dixon's Up-Down method, Von Frey fibers were used to induce the mechanical paw withdrawal of the mice, and data were collected and calculated to obtain their 50% paw withdrawal thresholds (paw withdrawal threshold or PWT for short, i.e. pain threshold). Mice were then divided into different groups, including a normal saline group, a positive control group, and a drug group, which were intraperitoneally injected with normal saline, an aspirin (acetylsalicylic acid, or ASA) solution and a solution of compound for testing respectively. A Von Frey test was then performed to monitor changes in pain threshold.
Mice were divided into three groups: a blank control group, an aspirin (ASA) group, and a drug group. In blank control group, the mice were given normal saline, deionized water or deionized water containing ≤5% DMSO at the same volume as that in the drug group. In ASA group, the mice were given the known analgesic drug ASA as the positive control for tested compounds. In drug group, the mice were given compounds for testing accordingly. Due attention was paid to observe whether the pain threshold rose, the period during which the rise was maintained and the magnitude of the rise, after the injection of a tested compound solution.

[4] = test system: mice that suffered from pain due to induced inflammation; details: intrathecal injection, inflammatory pain; cited from earlier work
[5] = Plateau experiment, dose (vanadium) A5/G3 0.25, A1/G1/H1 0.49, A4/G2/H2 0.97, H3 1.9 mg/kg, 6 samples, listed as G1
[6] = Example 3, intraperitoneal injection, A1 0.97 mg/kg (atomic mass of vanadium), S about 250 mg/kg
[7] = Example 5, intraperitoneal injection, C 1.9 mg/kg (atomic mass of vanadium), S about 250 mg/kg
[8] = Example 6, intraperitoneal injection, D 1.9 mg/kg, S about 250 mg/kg
[9] = Example 7, intraperitoneal injection, B 0.97 mg/kg (atomic mass of vanadium), S about 250 mg/kg
[10] = Example 8, intraperitoneal injection, E 0.97 mg/kg (atomic mass of vanadium), ASA about 250 mg/kg
[11] = Example 9, intraperitoneal injection, F 0.97 mg/kg (atomic mass of vanadium), ASA about 250 mg/kg
[12] = Example 11 (BEOV), intraperitoneal injection, I about 0.97 mg/kg (atomic mass of vanadium)
[13] = Example 11 (BMOV), intraperitoneal injection, H1 about 0.97 mg/kg (atomic mass of vanadium)
[14] = Example 12, intraperitoneal injection, J about 0.97 mg/kg (atomic mass of vanadium)
[15] = Example 13, intraperitoneal injection, K about 0.97 mg/kg (atomic mass of vanadium)
[16] = Example 14, intraperitoneal injection, L about 0.97 mg/kg (atomic mass of vanadium)
[17] = Example 15, intraperitoneal injection, M about 0.97 mg/kg (atomic mass of vanadium)
[18] = Example 16, intraperitoneal injection, N about 0.97 mg/kg (atomic mass of vanadium)
[19] = Example 17, intraperitoneal injection, O about 0.97 mg/kg (atomic mass of vanadium)
[20] = Example 18, intraperitoneal injection, P about 0.97 mg/kg (atomic mass of vanadium)
[21] = Example 19, intraperitoneal injection, Q about 0.97 mg/kg (atomic mass of vanadium)
[22] = Example 20, intraperitoneal injection, R about 0.97 mg/kg (atomic mass of vanadium)

O=S(=O)([O-])[O-].[O]=[V+2] [Solution G1, Vanadyl sulfate]
Duration [1, 5]: >60 min | Maximum analgesic intensity (mean) [1, 5]: ~0.49 g | Duration [2]: >60 min | Onset time [2]: 0 to 15 after injection min

CC(=O)Oc1ccccc1C(=O)O [Solution S, acetylsalicylic acid, reference compound]
Duration [3, 6]: <45 min | Onset time [3, 6]: 15 to 30 after injection min | Duration [3, 7]: <45 min | Onset time [3, 7]: 15 to 30 after injection min | Duration ([3]; Example 5, intraperitoneal injection, C 1.9 mg/kg (atomic mass of vanadium), S about 250 mg/kg, listed as ASA): < 45 min | Duration [3, 8]: <45 min | Onset time [3, 8]: 15 to 30 after injection min | Duration ([3]; Example 6, intraperitoneal injection, D 1.9 mg/kg, S about 250 mg/kg, listed as ASA): < 45 min | Duration [3, 9]: <45 min | Onset time [3, 9]: 15 to 30 after injection min | Duration ([3]; Example 7, intraperitoneal injection, B 0.97 mg/kg (atomic mass of vanadium), S about 250 mg/kg, listed as ASA): < 45 min | Duration [3, 10]: <45 min | Onset time [3, 10]: 15 to 30 after injection min | Duration ([3]; Example 8, intraperitoneal injection, E 0.97 mg/kg (atomic mass of vanadium), ASA about 250 mg/kg, listed as ASA): < 45 min | Duration [3, 11]: <45 min | Onset time [3, 11]: 15 to 30 after injection min | Duration ([3]; Example 9, intraperitoneal injection, F 0.97 mg/kg (atomic mass of vanadium), ASA about 250 mg/kg, listed as ASA): < 45 min | Duration [3, 12]: <45 min | Onset time [3, 12]: 15 to 30 after injection min | Duration [3, 13]: <45 min | Onset time [3, 13]: 0 to 15 after injection min | Duration [3, 14]: <45 min | Onset time [3, 14]: 15 to 30 after injection min | Duration [3, 15]: <45 min | Onset time [3, 15]: 0 to 15 after injection min | Duration [3, 16]: <45 min | Onset time [3, 16]: 15 to 30 after injection min | Duration [3, 17]: <45 min | Onset time [3, 17]: 15 to 30 after injection min | Duration [3, 18]: <45 min | Onset time [3, 18]: 15 to 30 after injection min | Duration [3, 19]: <45 min | Onset time [3, 19]: 15 to 30 after injection min | Duration [3, 20]: <45 min | Onset time [3, 20]: 15 to 30 after injection min | Duration [3, 21]: <45 min | Onset time [3, 21]: 15 to 30 after injection min | Duration [3, 22]: <45 min | Onset time [3, 22]: 15 to 30 after injection min | Time after injection at which the pain threshold returned to the baseline value ([3]; intraperitoneal injection, doses as in Examples 3-9): about 60 minutes | Duration [2]: <45 min | Onset time [2]: 0 to 15 after injection min

[Na+].[Na+].[Na+].[O]=[V]([O-])([O-])[O-] [Solution A, Sodium orthovanadate]
Analgesic effect [4]: found the analgesic effect | Minimum effective dose ([1]; mice): about 1.0×10^−3 mg/kg | Blood concentration in mice equivalent to the plateau dose ([1]; plateau dose 0.49 mg/kg): 140 µM | Analgesic effect ([3]; mouse, in vivo, ip): have an analgesic effect | Effective duration compared with aspirin (ASA) ([3]; mouse, in vivo, ip): significantly longer duration of action than that of ASA; also recorded: longer than that of aspirin
